Results: patent US20050089473A1, “Potassium channel mediated delivery of agents through the blood-brain barrier” (Cedars-Sinai Medical Center, priority 2003, published 2005)
Counter-ions that a name gives are not always drawn.

Legend:
[1] = system: KATP channels; experiment: Membrane potential assay of KATP channel activity; type: cell-based, human; conditions: RBEC, HBMVEC, RG2 and GBM cells
Procedure: Functional activities of putative KATP channels in HBMVEC and GBM cells were measured by detecting changes in voltage across the cell membrane as described earlier (Ningarsj, N. S., Rao, M., Hashizume, K., Asotra, K., and Black, K. L. Regulation of blood-brain tumor barrier permeability by calcium-activated potassium channels J. Pharmacol. Exp. Ther., 301:838-851, 2002). A membrane potential assay kit (Molecular Devices, Sunnyvale, Calif.) provided a fast, simple and consistent mix-and-read procedure. In brief, HBMVEC and GBM cells obtained from cell passages 2-5 was suspended in 5 ml of growth medium. In two separate experiments, the cell density was adjusted to 1×10^3 cells/well and coated in sterile, clear bottom, blank 96-well plates (Corning, Inc., Acton, Mass.), pre-coated with poly L-Lysine, and allowed to achieve a monolayer within 24 h. The monolayer cells were incubated with the membrane potential assay kit reagents for 30 min and read directly by FLEXstation. The anionic pchemiometric dye that traverses between cells and the extracellular solution in a membrane potential-dependent manner serves as an indicator of vasomodulator-induced voltage changes across the cell membrane. […] Additionally, the effects of the optimum dose (10 μM) of MS and glibenclamide (100 nM) on KATP channels activity in HBMVEC and GBM cells were determined.

[2] = system: intracerebral RG2 tumors; experiment: In vivo BTB permeability (Ki by quantitative autoradiography) in RG2 tumor-bearing rats; parameters: species or system rat; conditions: i.c. MS 30 μg/kg/min, RG2 tumor
Procedure: All animal experiments were conducted in accordance with policies set by the Institutional Animal Care and Usage Committee and NIH guidelines. A rat syngeneic tumor model was prepared using female Wistar rats and a human-tumor xenograft model in athymic nude rats weighing 180-200 g were prepared for the BBB/BTB permeability studies. […] Rat glioma (RG2) cells (1×10^5) in 5 μl of medium with 1.2% methylcellulose were injected into the basal ganglia of Wistar rats, while nude rats were injected with glioblastoma multiforme (GBM) primary cells (5×10^5). The coordinates were 5-mm lateral to the bregma and 4.5 mm deep to the basal ganglia. […] In regional permeability studies, 5 min after the start of the intracarotid (i.c.) infusion, 100 μCi/kg of [^14C] […]
The Ki was determined for radiotracers, [^14C]-AIB, [^14C]-carboplatin, and [^14C] dextran in the tumor core, tumor-adjacent brain tissue, and contralateral brain tissue using the quantitative autoradiographic (QAR) method as described earlier (Ningarsj, N. S., Rao, M., Hashizume, K., Asotra, K., and Black, K. L. Regulation of blood-brain tumor barrier permeability by calcium-activated potassium channels J. Pharmacol. Exp. Ther., 301:838-851, 2002; Ningaraj, N. S., Rao, M., and Black, K. L. Calcium-dependent potassium channels as a target protein ir. the modulation of blood-brain humor barrier.

[3] = system: RG2 tumor capillary endothelium; experiment: Transmission electron microscopy of vesicular transport in tumor capillary endothelium; type: in vivo, rat; conditions: i.c. MS 30 μg/kg/min 15 min
Description: S., Rao, […]., and Black, K. L. Regulation of blood-brain tumor barrier permeability by calcium-activated potassium channels J. Pharmacol. Exp. Ther., 301:838-851, 2002). […] S., Rao, […]., and Black, K. L. Regulation of blood-brain tumor barrier permeability by calcium-activated potassium channels J. Pharmacol. Exp. Ther., 301:838-851, 2002). Briefly, micrographs were placed on a digitizing screen and structural features measued using Scan […]TM, a computer-assisted, image analysis system (Jandel Scientific, Corte Madera, Calif.). Abluminal and luminal circumferences, areas of endothelial cytoplasm excluding nuclei and vacuoles, and mean thickness of endothelial cytoplasm were measured and compared with those in the control group. The mean thickness of endothelium was calculated by subtraction of the luminal radius from the abluminal radius, which was obtained from the areas encircled by the luminal and abluminal circumferences, respectively. The proportion of total vesicular area to the cytoplasmic area was expressed as a percentage in order to derive another parameter to characterize vesicular transport.

[4] = system: intracranial human glial tumors; experiment: Survival study, nude mice with intracranial human glial tumors; type: in vivo, mouse; conditions: i.v., three consecutive doses for three days
Procedure: GBM-xenograft rat and mouse models were developed by intracranially implanting primary GBM cells isolated from patient brain tumor tissue. […] To investigate whether MS administration by intracarotid (i.c.) and intravenous (i.v.) routes, increases BTB permeability to different tracers, and enhances delivery to brain tumor, permeability studies were performed.
Nude mice were intracranially implanted with cells. The tumor was allowed to grow for 7 days before treatment was initiated.

[5] = system: metastatic lung brain tumors; experiment: [14C]AIB uptake in metastatic lung brain tumor model; type: in vivo; conditions: intravenous co-injection

Nc1cc(N2CCCCC2)nc(N)[n+]1OS(=O)(=O)[O-] [MS, minoxidil sulfate]
Membrane potential dye fluorescence intensity [1]: dose-dependent decrease
Delivery of [14C]-labeled AIB, dextran and carboplatin across the BTB [2]: significantly enhanced delivery
Endothelial tight junction indices in tumor capillaries [3]: did not alter the endothelial tight junction indices
Vesicular density in tumor capillary endothelium [3]: significantly increased vesicular density
Mean survival [4]: 27.09 ± 8.7 days
Increase of [14C]AIB uptake to the tumor [5]: approximately three-fold
